Source: patent US20240207258A1, “HETEROCYCLIC PDK1 INHIBITORS FOR USE TO TREAT CANCER” (Viracta Therapeutics, Inc., priority 2015, published 2024)

Assays:
MV4-11 cells = test: Induction of apoptosis (Annexin V / propidium iodide flow cytometry); format: cell-based, human
Description: Cells were seeded in a six-well tissue culture plate in 3 mL complete growth medium (3×10^5 cells/well) and allowed to equilibrate for 1 hr at 37° C. in a humidified incubator with 5% CO2. DMSO (control), test compound, or doxorubicin was added to the wells (0.1% final DMSO concentration). Cells were returned to the incubator for 24 hrs. On the day of analysis 1×10^5 cells were labeled according to manufacturer's instructions and analyzed by flow cytometry (BD FACSCaalibur™, GH) to determine the percent of apoptotic cells (annexin V positive, AV+) and/or apoptotic dead cells (AV+ and propidium iodide positive (PI+)).

Jeko = test: MTS cell proliferation assay, Jeko; format: cell-based; details: Homo sapiens, 72 hr
Description: (§1) Cell proliferation was measured using the CellTiter 96 Aqueous Non-Radioactive Cell Proliferation Assay (Promega). The CellTiter 96® AQueous Assay is composed of solutions of a tetrazolium compound [3-(4,5-dimethylthiazol-2-yl)-5-(3-carboxymethoxyphenyl)-2-(4-sulfophenyl)-2H-tetrazolium, inner salt; MTS] and an electron coupling reagent (phenazine methosulfate) PMS. MTS is bioreduced by cells into a formazan product that is soluble in tissue culture medium. The absorbance of the formazan product at 490 nm can be measured directly from assay plates without additional processing. The quantity of formazan product as measured by the amount of 490 nm absorbance is directly proportional to the number of living cells in culture. Cells were seeded into 96-well or 384-well clear plates in a volume of 200 μL (96-well) or 50 μL (384-well) at optimized densities ranging from 1,000 to 40,000 cells per well for 96-well plates or 1,200 to 25,000 cells per well for 384-well plates depending on cell-line. After 4-6 hr recovery, serially diluted compounds in DMSO were added to the cells using (0.1% v/v final DMSO concentration). Cells were then grown at 37° C. in a humidified incubator with 5% CO2 for 72 hr. A 20:1 [3-(4,5-dimethylthiazol-2-yl)-5-(3-carboxymethoxyphenyl)-2-(4-sulfophenyl)-2H-tetrazolium](MTS):phenazine methosulfate (PMS) solution in DPBS was made immediately before use, added to each well, and cells were incubated for 1.5 hr at 37° C. The absorbance at 490 nm was then measured using a platereader. Absorbance values were normalized as percent of control (cells incubated in the presence of 0.1% v/v DMSO). Sigmoidal dose-response curves were plotted using log(inhibitor) vs. response—Variable slope (four parameters) model with a top value constrained to 100% (GraphPad Prism version 6.00 for Windows, GraphPad Software, La Jolla California USA). […] Curves for compounds that reached a plateau were matched exactly to the measurement points. […] To determine potential of compounds of the invention to affect viability of hematological cancers, cell lines representing various tumor types were selected and tested. Human cell lines tested were: MOLM-13 (acute myeloid leukemia (AML)), MV4-11 (AML), U-2932 (ABC-diffuse large B cell lymphoma), U-937 (histiocytic lymphoma), U-266 (multiple myeloma), RPMI-8226 (multiple myeloma), CMK (megakaryoblastic cell line), SU-DHL-4 (GCB-diffuse large B cell lymphoma), KG1 (AML), Mec-1 (chronic B-cell leukemia), MOLM-16 (AML), Jeko (B-cell lymphoma), WSU-DLCL2 (B-cell lymphoma), JJN3 (plasma cell leukemia), SU-DHL-6 (GCB-diffuse large B cell lymphoma), and Z-138 (mantle cell lymphoma). In addition, two murine cell lines were tested: A20 […].

C1498 = test: MTS cell proliferation assay, C1498; format: cell-based, murine; details: Mus musculus, C1498, 72 h, read-out: MTS proliferation assay (μM)
Description: (§2) Cell proliferation was measured using the CellTiter 96 Aqueous Non-Radioactive Cell Proliferation Assay (Promega). […] MTS is bioreduced by cells into a formazan product that is soluble in tissue culture medium. The absorbance of the formazan product at 490 nm can be measured directly from assay plates without additional processing. The quantity of formazan product as measured by the amount of 490 nm absorbance is directly proportional to the number of living cells in culture. Cells were seeded into 96-well or 384-well clear plates in a volume of 200 μL (96-well) or 50 μL (384-well) at optimized densities ranging from 1,000 to 40,000 cells per well for 96-well plates or 1,200 to 25,000 cells per well for 384-well plates depending on cell-line. After 4-6 hr recovery, serially diluted compounds in DMSO were added to the cells using (0.1% v/v final DMSO concentration). Cells were then grown at 37° C. in a humidified incubator with 5% CO2 for 72 hr. A 20:1 [3-(4,5-dimethylthiazol-2-yl)-5-(3-carboxymethoxyphenyl)-2-(4-sulfophenyl)-2H-tetrazolium](MTS):phenazine methosulfate (PMS) solution in DPBS was made immediately before use, added to each well, and cells were incubated for 1.5 hr at 37° C. The absorbance at 490 nm was then measured using a platereader. Absorbance values were normalized as percent of control (cells incubated in the presence of 0.1% v/v DMSO). Sigmoidal dose-response curves were plotted using log(inhibitor) vs. response—Variable slope (four parameters) model with a top value constrained to 100% (GraphPad Prism version 6.00 for Windows, GraphPad Software, La Jolla California USA). […] To determine potential of compounds of the invention to affect viability of hematological cancers, cell lines representing various tumor types were selected and tested. […] In addition, two murine cell lines were tested: A20 […].

P-AKT = test: Western blot, AKT phosphorylation in A20 cells; format: cell-based, murine
Description: For phosphoprotein analyses, cells were seeded into 10 cm petri dishes (10×10^6 cells/dish) in media supplemented with 10% FBS and penicillin/streptomycin. After cells recovered for 1 hr at 37° C., compounds were added in DMSO (0.1% final) and incubated for 4 or 24 hr at 37° C. Cells were then harvested by centrifugation and washed with cold PBS. Cell pellets were resuspended in cell extraction buffer (Invitrogen) supplemented with 2×Halt™ protease and phosphatase inhibitor cocktail (Thermo Scientific), 2 mM sodium orthovanadate, 10 mM EDTA and 4 mM PMSF. Samples were lysed by sonication and incubated on ice for 30 min. Cell debris was removed by centrifugation and protein concentrations were determined using the BCA Protein Assay Kit (Pierce). The clarified lysate was diluted in LDS sample buffer with reducing agent (Life Technologies). […] Gels were run at 110 V and proteins were transferred to a PVDF membrane. Membranes were blocked in TBS blocking buffer (Li-Cor Biosciences) for 1 hr. Primary antibodies (Cell Signaling, Sant Cruz Biotechnology) were added (1:1,000 dilution) in blocking buffer with 0.1% Tween-20 and 1:20,000 dilution of β-actin antibody and incubated for 14 hr at 4° C. Blots were washed in TBS-T. Label-conjugated goat anti-rabbit secondary antibody (IRdye® 800CW; Li-Cor Biosciences) was added in blocking buffer with 0.1% Tween-20 and 0.02% SDS and incubated for 1 hr. After washing in TBS-T followed by TBS, membranes were scanned on an Odyssey imaging system (Li-Cor Biosciences). Bands were quantitated using ImageJ.

A20 = test: MTS cell proliferation assay, A20; format: cell-based, murine; details: Mus musculus; A20, 72 hr
Description: as §1

RPMI-8226 = test: MTS cell proliferation assay, RPMI-8226; format: cell-based; details: Homo sapiens; RPMI-8226, 72 hr
Description: as §1

MV4-11 = test: MTS cell proliferation assay, MV4-11; format: cell-based, human; details: Homo sapiens, MV4-11, 72 h, read-out: MTS proliferation assay (μM)
Description: as §2

P-PDK1 = test: Pathway modulation in MV4-11 tumor xenografts, pPDK1; format: in vivo, mice; details: MV4-11 tumors, IP 50 mg/kg
Description: MV4-11 cells propagated in vitro were implanted subcutaneous into the right flank of 9-week old female NCr nu/nu mice. On the day of implant, MV4-11 cells were harvested during log phase growth and resuspended in phosphate buffered saline (PBS) containing 50% Matrigel™ (BD Biosciences) at a concentration of 1×10^8 cells/mL. […] Two weeks after implantation, animals were assigned to individual groups of 3 animals with and average tumor volume of approximately 200 mm^3. […] Eight hours post-dose, full blood volume was collected by cardiac puncture under isoflurane anesthesia and tumors were excised and snapfrozen in liquid nitrogen and stored at −80° C. until further analysis. Tumors were pulverized in liquid nitrogen using a Biopulverizer and split into two sample tubes: one for Western blot analysis and one for analysis of compound levels by LC-MS/MS. […] For MS analysis, tumor samples were homogenized with a Virsonic 100 ultrasonic homogenizer. Each sample was first weighed, and then an appropriate volume of 20:80 methanol:water was added to make a 9 mL/gram sample. Samples were then homogenized on ice, and stored frozen until analysis. Standards were prepared in BALB/c mouse plasma or blank homogenized tumor tissue. Standards and samples were analyzed on a PE Sciex API4000 instrument and compound concentration was quantified and back-calculated to ng compound per g tumor tissue and converted to M concentration assuming 1 g tumor tissue equals 1 mL volume.

U-2932 = test: MTS cell proliferation assay, U-2932; format: cell-based; details: Homo sapiens, U2932; U-2932, 72 hr
Description: as §1

Molm-13 = test: MTS cell proliferation assay, Molm-13; format: cell-based; details: Homo sapiens; Molm-13, 72 hr
Description: as §1

[1] = tested on: hematologic tumor cell lines; test: MTS cell proliferation assay, panel of hematologic cancer cell lines; format: cell-based; details: 72 hrs, percent of control
Description: as §1

[2] = target: T1, Full-length phosphorylated PDK1 (Homo sapiens, UniProt O15530); test: FRET-based PIF-tide binding assay; details: 10 nM compound where stated, FIG. 13D
T1 sequence (O15530 1-556): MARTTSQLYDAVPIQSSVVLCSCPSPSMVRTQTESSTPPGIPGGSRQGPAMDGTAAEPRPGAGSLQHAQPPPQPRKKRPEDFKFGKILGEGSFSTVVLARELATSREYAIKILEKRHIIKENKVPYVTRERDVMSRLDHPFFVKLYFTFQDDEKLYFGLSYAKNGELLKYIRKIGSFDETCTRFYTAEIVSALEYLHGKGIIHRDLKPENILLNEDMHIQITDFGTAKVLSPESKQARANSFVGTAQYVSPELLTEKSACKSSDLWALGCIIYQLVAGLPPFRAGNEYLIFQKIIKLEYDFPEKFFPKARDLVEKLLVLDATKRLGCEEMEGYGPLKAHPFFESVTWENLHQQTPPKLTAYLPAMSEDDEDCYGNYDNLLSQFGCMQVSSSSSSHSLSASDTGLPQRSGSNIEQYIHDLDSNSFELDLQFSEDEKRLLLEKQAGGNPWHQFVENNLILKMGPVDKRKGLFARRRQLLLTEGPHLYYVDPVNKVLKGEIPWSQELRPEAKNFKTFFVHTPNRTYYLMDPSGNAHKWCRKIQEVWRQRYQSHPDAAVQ

SMILES: CNc1nc(-c2ccc3c(N)n[nH]c3c2)cc(N2C[C@@H](C(=O)NC3CCCCC3)CC[C@H]2C)n1 [GSK2334470, reference compound]
- apoptosis at 100 nM (MV4-11 cells; 100 nM): no evidence of apoptosis
- concentration inducing apoptosis (MV4-11 cells; 24 hrs): > 300 nM
- EC50 (Jeko): 2250 nM
- EC50 (C1498): 0.358 µM
- P-AKT levels (P-AKT): barely affected
- EC50 (A20): 490 nM
- EC50 (RPMI-8226): 2900 nM
- EC50 (MV4-11): 0.105 µM
- pathway modulation and tumor exposure (P-PDK1): comparable to that of 50 mg/kg GDC0941 and 1 mg/kg Compound 1 or Compound 2
- EC50 (U-2932): 986 nM
- EC50 (Molm-13): 360 nM

SMILES: COc1cccc2c1C(=O)c1c(O)c3c(c(O)c1C2=O)C[C@@](O)(C(=O)CO)C[C@@H]3O[C@H]1C[C@H](N)[C@H](O)[C@H](C)O1 [doxorubicin, reference compound]
- plateau of growth inhibition curve at higher concentrations [1]: < 20%

SMILES: CN[C@@H]1C[C@H]2O[C@@](C)([C@@H]1OC)n1c3ccccc3c3c4c(c5c6ccccc6n2c5c31)C(=O)NC4 [staurosporine, reference compound]
- FRET between PDK1 and PIF-tide [2]: does not inhibit FRET
